The source of these data is PubChem BioAssay (NCI).

Common to all, as to assay: DTP human tumour cell line panel, 48 h
Assay [1] relates to DMS 273 small cell lung.
For assay [2], the system named is LOX IMVI melanoma.
Assay [3] relates to M19-MEL melanoma.
Assay [4] has as its system IGROV1 ovarian.
Assay [5] relates to U251 CNS.
The test system of assay [6] is HL-60(TB) leukemia.
Assay [7] relates to NCI-H23 lung.
The subject of assay [8] is OVCAR-8 ovarian.
For assay [9], the system named is RXF 393 renal.
Assay [10] has as its system MDA-MB-231 breast.

The structures appear in SMILES notation. Values joined by “and” are separate entries in the source; they are usually repeats but may differ in a detail not shown here. Identical values can stand only once.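 Where inhibition never reached the appropriate level, the endpoint shown equals the highest concentration tested. Otherwise, values were interpolated linearly from a five-concentration, 48-hour dose response in 96-well plates. GI50 marks 50% less growth. TGI marks complete inhibition of growth.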 A value given as a limit tells only on which side of the number the result lay.

As usually defined, the TGI is the concentration at which net growth stops. A low value points to more potent growth arrest. The term GI50 denotes the concentration that inhibits growth by half.

`COc1ccc(/C=N/N=C(\N)NO)cc1OC`: the TGI in assay [1], in assay [2], in assay [3], in assay [4], in assay [5] and in assay [6] was > 100 µM each time. In addition, the concentration for total growth inhibition (TGI) in assay [7] is > 100 µM; in [8], > 100 µM; in assay [9], 67.4 µM.

`O=C1c2cccc3cc([N+](=O)[O-])cc(c23)C(=O)N1CCNCCNCCNCCN1C(=O)c2cccc3cc([N+](=O)[O-])cc(c23)C1=O`: the TGI in assay [1] is 0.177 µM and 0.23 µM; in assay [4], 0.205 µM; in assay [5] it was 0.0206 µM; in assay [8], 0.512 µM; in [9] it was 0.269 µM and 0.169 µM. Besides, the 50% growth inhibitory concentration (GI50) in [9] is 0.0162 µM.

On to `CCN1C2=NC(=O)N(C)C(=O)C2(Cl)C(C(SC)S(=O)(=O)c2ccc(C)cc2)c2ccccc21` (configuration not stated), for which the TGI is > 100 µM in [1]; > 100 µM in assay [2]; 61.5 µM in [3]; > 100 µM in assay [4]; > 100 µM in assay [5]; 19.7 µM in [6]. For the same compound, the TGI in assay [7] and in assay [8] was 50.4 µM in each case.

On to `CCCCCCCCCC(=O)CC(=O)c1ccc(O)cc1O`, for which the TGI in assay [1] was 74.1 µM; in [2], 38.7 µM; in [4], > 100 µM; in assay [5], 64.9 µM; in [6] it was 53.9 µM; in assay [7], 59.8 µM. Besides, the TGI stood at 67.9 µM in [8] and 72.1 µM in assay [9].

In the case of `COC(=O)C1=C(C)N(NC(N)=O)C2(N)N(NC(N)=O)C(C)=C(C(=O)OC)C12C(=O)OC` (configuration not stated), the concentration for total growth inhibition (TGI) in assay [1], in [2], in assay [3], in assay [4], in [5] and in [6] was > 100 µM in each case. Moreover, the TGI in assay [7] and in assay [8] was > 100 µM each time.

Turning to `O=C1NC(=S)NC(=O)C1=Cc1cc2c(cc1[N+](=O)[O-])OCO2`, the total growth inhibition concentration (TGI) in assay [1], in assay [3], in assay [4], in assay [5], in [6] and in [8] was > 100 µM each time. For the same compound, the TGI in assay [9] is > 100 µM.

Take `CC(=O)OC1C(=O)C(O)C(C)OC1O[C@@H]1C[C@@]2(C)[C@@H]3CC=C4[C@@H](C[C@H](O)C(=O)C4(C)C)[C@]3(C)C(=O)C[C@]2(C)[C@H]1[C@@](C)(O)C(=O)/C=C/C(C)(C)O` (some centres not stated): in assay [1], the GI50 is 0.0452 µM. In addition, the TGI is 2.76 µM in [2]; > 10 µM in assay [3]; 4.62 µM in assay [4]; 5.41 µM in assay [5]; 7.1 µM in assay [6]; > 10 µM in [7]. In addition, the TGI is > 10 µM in assay [8] and 1.43 µM in assay [9].

As to `O=c1n(C2CCCCC2)c(=C(Cl)Cl)c(=C(Cl)Cl)n1C1CCCCC1`, the TGI in [1], in [2], in assay [3], in [4], in assay [5] and in [6] was > 100 µM each time. Also, the TGI in [7], in assay [8] and in [9] was > 100 µM each time.

Turning to `CCOc1ccc(N=Cc2cccc3cccnc23)cc1`, the total growth inhibition concentration (TGI) in [1] was > 100 µM; in [3], > 100 µM; in [4] it was > 100 µM; in assay [5], > 100 µM; in [6], 62.2 µM; in assay [7], > 100 µM. In addition, the total growth inhibition concentration (TGI) in [8] and in assay [9] was > 100 µM throughout.

Regarding `COc1ccc(C=C2C(=O)OC(C)(C)OC2=O)cc1OC`, the concentration for total growth inhibition (TGI) in [3], in assay [4], in assay [5], in assay [7] and in assay [8] was > 100 µM each time.

As to `CC(O)/C=C/C(CCC(C)CO)C(C)C` (configuration not stated), the TGI in assay [1], in [2], in assay [3], in assay [4], in assay [5] and in [6] was > 100 µM each time. Besides, the TGI in [7], in assay [8] and in assay [9] was > 100 µM each time.

Turning to `CC(C)NCCNC(=O)c1ccccc1Nc1c(Cl)cccc1Cl`, the TGI was 26.6 µM in assay [1]; 20.6 µM in [2]; 20.8 µM in assay [3]; 30.7 µM in assay [4]; 16.8 µM in assay [5]; 24.8 µM in assay [6]. For the same compound, the TGI in assay [7] came out at 32 µM; in [8], 34.4 µM; in assay [9], 17 µM.

Consider `O=C1C(Cl)C(c2cccc(O)c2)N1n1cnc2ccccc2c1=O` (configuration not stated), for which the TGI in assay [1], in [2], in assay [3], in assay [4], in assay [5] and in assay [6] was > 100 µM throughout. Moreover, the TGI in assay [7], in [8] and in assay [9] was > 100 µM throughout.

Take `COc1ccc2[nH]c(-c3ccccn3)cc(=O)c2c1`: the TGI in [2], in assay [3], in assay [4], in assay [6], in assay [7] and in assay [8] was > 100 µM in each case. Besides, in assay [9], the concentration for total growth inhibition (TGI) came out at 33.8 µM. Besides, the GI50 in assay [9] is 2.49 µM.

Take `Cc1cccc(C(C)(C)C)c1NC(=O)C(=O)C(C(=O)/C=C\c1ccccc1)C1OC(=O)c2ccccc21` (configuration not stated): the TGI in assay [2], in assay [3], in assay [4], in assay [5], in assay [6] and in [7] was > 100 µM in each case. Further, the TGI in assay [8] and in assay [9] was > 100 µM each time.

With `CCCN(CCCCC(NC(C)=O)C(=O)NCc1ccccc1)C(=O)NCCCl` (configuration not stated), the TGI in assay [1], in assay [3], in assay [5], in assay [6], in assay [7] and in assay [8] was > 100 µM throughout. Moreover, in [9], the TGI was > 100 µM.

For `COC(=O)C1CC(C(=O)OC)c2nc3cc(C)ccc3nc21` (configuration not stated), the TGI in assay [1], in assay [2], in assay [3], in [4], in assay [5] and in [6] was > 100 µM in each case. The total growth inhibition concentration (TGI) in assay [7] and in [8] was > 100 µM throughout.

Turning to `CCCCCCCCCCCCCCCCCC(=O)OCC(CN(C)CCN(C)C)OC(=O)CCCCCCCCCCCCCCCCC` (configuration not stated), the TGI in assay [1], in assay [2], in [4], in assay [5], in [7] and in [8] was > 100 µM each time. Also, in assay [9], the concentration for total growth inhibition (TGI) was > 100 µM.

As for `O=S(=O)([O-])c1cccc2cccc(N=Cc3ccccc3[O-])c12.O=S(=O)([O-])c1cccc2cccc(N=Cc3ccccc3[O-])c12.[O]=[U]=[O]`, the GI50 in [1] is 42.7 µM; in [2], 55.9 µM; in [3] it was > 100 µM; in [4] it was 70.6 µM; in assay [5], 30.8 µM; in assay [7], 51.5 µM. The GI50 was 38.5 µM in assay [8] and 10.7 µM in assay [9]. In addition, the concentration for total growth inhibition (TGI) in assay [1], in [2], in [3], in [4], in assay [5] and in assay [7] was > 100 µM each time. The concentration for total growth inhibition (TGI) is > 100 µM in assay [8] and 25.1 µM in [9].

Regarding `Cc1ccccc1-c1c(N)nc(NC#N)nc1C(=O)Nc1ccccc1`, the TGI in assay [1], in assay [2], in [3], in assay [4], in assay [5] and in [7] was > 100 µM in each case. The TGI in [9] was > 100 µM.

For `Clc1ccc(Cl)c2[s+]snc12`, the concentration for total growth inhibition (TGI) was > 62.7 µM in assay [1]; > 100 µM in assay [2]; > 100 µM in [3]; > 100 µM in assay [4]; > 100 µM in assay [5]; > 100 µM in assay [6]. Moreover, the concentration for total growth inhibition (TGI) in [7] and in assay [8] was > 100 µM each time.

Take `CC(=O)Nc1ccc(C(=O)N2N=C(C)/C(=C/c3ccccc3O)C2=O)cc1`: the concentration for total growth inhibition (TGI) in assay [1], in assay [2], in assay [3], in [6], in assay [7] and in [8] was > 100 µM throughout.

For `O=C(O)CNc1c2ccccc2nc2ccccc12`, the TGI in [1], in assay [2], in assay [4], in assay [5], in assay [6] and in assay [7] was > 100 µM throughout. Moreover, the total growth inhibition concentration (TGI) in assay [8] and in assay [9] was > 100 µM throughout.

With `CSc1nc(NC2OCC(OC(C)=O)C(OC(C)=O)C2OC(C)=O)c2c(OC(C)=O)c(C)c(=O)oc2n1` (configuration not stated), the TGI in assay [2], in assay [3], in assay [4], in assay [5], in assay [6] and in [7] was > 100 µM in each case. Besides, the TGI in assay [8] and in assay [9] was > 100 µM throughout.

For `COP(=O)(OC)C(NC(c1ccccc1)c1ccccc1)c1ccc2c(c1)OCO2` (configuration not stated), the GI50 in assay [10] is 14 µM; in [2] it was 16.4 µM; in assay [4], 22 µM; in assay [5] it was 30.8 µM; in assay [6] it was 22.8 µM; in assay [7], 31.5 µM. The GI50 was 35.2 µM in assay [8] and 23 µM in assay [9]. In addition, the total growth inhibition concentration (TGI) in assay [10] was 37.9 µM; in assay [2] it was 31.4 µM; in [4], 73.6 µM; in assay [5] it was > 100 µM; in assay [6], 56.5 µM; in assay [7], 88.3 µM. Moreover, the figures for the total growth inhibition concentration (TGI) in assay [8] and in assay [9] were > 100 µM and 50.1 µM, respectively.

`CCCCCCCCCCC/C(=N/O)c1ccc(O)c2ncccc12`: the TGI was 4.79 µM in assay [1]; 13.6 µM in assay [2]; 4.97 µM in assay [3]; 23.5 µM in assay [5]; 57.4 µM in assay [7]; 16.2 µM in assay [8]. In assay [9], this compound returned a concentration for total growth inhibition (TGI) of 27.6 µM.

As to `Cc1c(C#N)cccc1-c1cc(-c2cn(Cc3cccc(C(C)(C)O)n3)nn2)nc(N)n1`, the GI50 in assay [10] was 15.7 µM; in assay [2], 28.2 µM; in [4], 14.4 µM; in assay [5], 39.8 µM; in assay [6], 12.2 µM; in [7], 26 µM. Besides, the GI50 is 24.2 µM in [8] and 22.9 µM in [9]. Also, the TGI in assay [10] is > 100 µM; in [2], > 100 µM; in assay [4], > 100 µM; in assay [5], > 100 µM; in [6], 46 µM; in [7], > 100 µM. Further, the total growth inhibition concentration (TGI) in assay [8] and in [9] was > 100 µM throughout.

Turning to `CCCC[C@H]1C(=O)O[C@H](C)[C@H](NC(=O)c2cccc(NC=O)c2O)C(=O)O[C@@H](C)[C@@H]1OC(=O)CC(C)C`, the TGI in [10] came to 32.8 µM; in assay [2] it was 19 µM; in [4], 41.9 µM; in assay [5], 21.9 µM; in [6], 34.2 µM; in assay [7] it was 31.2 µM. Also, the TGI in assay [8] was found to be 40.5 µM; in assay [9] it was 24.6 µM.

Take `C(=N\Nc1ccccn1)/c1ccccn1`: the GI50 was 0.501 µM in assay [10]; 0.319 µM in assay [2]; 0.355 µM in assay [4]; 0.445 µM in assay [5]; 0.272 µM in assay [6]; 0.503 µM in [7]. In addition, the concentration for 50% growth inhibition (GI50) was 0.411 µM in assay [8] and 0.335 µM in [9]. The TGI in assay [10] was > 100 µM; in assay [2], > 100 µM; in assay [4], > 100 µM; in [5] it was > 100 µM; in [6] it was 2.53 µM; in assay [7], > 100 µM. The TGI in assay [8] was > 100 µM.
